For one test, the target named is T1, human pol δ (Homo sapiens, UniProt P28340).
T1 construct: purified by nuclear fractionation of human peripheral blood cancer cells (Molt-4); endogenous in cells; host or cells: Molt-4
Description: DNA polymerase assay, pol δ. It counts as biochemical. The settings on record: 100 μM. The text has this: (§1) Pol α was purified from calf thymus by immuno-affinity column chromatography, as described by Tamai et al.. Recombinant rat pol β was purified from E. coli JMpβ5, as described by Date et al.. The human pol γ catalytic gene was cloned into pFastBac. Histidine-tagged enzyme was expressed using the BAC-TO-BAC HT Baculovirus Expression System according to the supplier’s manual (Life Technologies, MD, USA) and purified using ProBoundresin (Invitrogen Japan, Tokyo, Japan). Human pols δ and ɛ were purified by nuclear fractionation of human peripheral blood cancer cells (Molt-4) using the second subunit of pols δ and ɛ-conjugated affinity column chromatography, respectively. A truncated form of human pol η (residues 1–511) tagged with His6 at its C-terminal was expressed in E. coli cells and purified as described by Kusumoto et al.. A recombinant mouse pol ι tagged with His6 at its C-terminal was expressed and purified by Ni-NTA column chromatography as described elsewhere (Masutani et al., in preparation). […]
(§2) The compounds were dissolved in distilled dimethyl sulfoxide (DMSO) at various concentrations and sonicated for 30 sec. […] Activity without the inhibitor was considered 100%, and the remaining activity at each concentration of the inhibitor was determined relative to this value. […]

A further test addresses T2, T7 RNA polymerase (Escherichia phage T7, UniProt P00573).
T2 construct: purchased Takara Bio (Tokyo, Japan)
In words: T7 RNA polymerase assay. Type of test: biochemical. Conditions: 100 μM.
From the text: as §1, with “al..” for “al.. A recombinant mouse pol ι tagged with His6 at its C-terminal was expressed and purified by Ni-NTA column chromatography as described elsewhere (Masutani et al., in preparation).”
The activities of calf primase of pol α, human telomerase, T7 RNA polymerase, mouse IMP dehydrogenase, human DNA topoisomerases I and II, T4 polynucleotide kinase and bovine DNase I were measured in standard assays according to the manufacturer’s specifications, as described by Tamiya-Koizumi et al., Oda et al., Nakayama et al., Mizushina et al., Ishimaru et al., Soltis et al. and Lu et al., respectively.

The next test deals with T3, human pol γ (Homo sapiens, UniProt P54098).
T3 construct: His; made in house
In words: DNA polymerase assay, pol γ. It counts as biochemical. The settings on record: 100 μM.
From the text: as §1, §2

Another test addresses T4, human pol ɛ (Homo sapiens, UniProt Q07864).
T4 construct: purified by nuclear fractionation of human peripheral blood cancer cells (Molt-4); endogenous in cells; host or cells: Molt-4
Description: DNA polymerase assay, pol ɛ. Type of test: biochemical. Conditions: 100 μM.
From the text: as §1, §2

The subject of test [1] is HCT116 (colon carcinoma cells). Description: Cancer cell growth, MTT assay, HCT116. Type of test: cell-based, human. The method, then:
Figure 5. (A) Human cancer cell growth inhibition dose-response curves of 3-O-methyl-funicone (1). Various concentrations (0 to 150 μM) of compound 1 were incubated with human colon carcinoma (HCT116) cells (circle) and human cervix carcinoma (HeLa) cells (square) for 24 h. Rate of cell growth was determined by MTT assay as described in the Experimental section. Data are shown as the means ± SEM of five independent experiments. (B) Clonogenic survival of UV-treated HeLa cells by compound 1. Various concentrations (0 to 100 μM) of compound 1 were incubated with 10 J/m^2 UV-treated (closed circle) or untreated (open circle) HeLa cells. After 7 days, the number of colonies in each treatment group was counted. Values are the means ± SEM of two independent experiments.
Human colon carcinoma cell line, HCT116, was a kind gift from Dr. Bert Vogelstein (Johns Hopkins University, Baltimore, […], USA). Human cervix carcinoma cell line, HeLa, was obtained from Health Science Research Resources Bank (Osaka, Japan). The cells were maintained in McCoy’s 5A medium supplemented with 10% FBS, sodium bicarbonate (2 g/L) and streptomycin (100 μg/mL). The cells were cultured at 37 °C in standard medium in a humidified atmosphere of 5% CO2-95% air. […] After incubation for 24 h, the survival rate was determined by MTT (3-(4,5-dimethylthiazol-2-yl)-2,5-diphenyl tetrazolium bromide) assay.

T4 sequence (Q07864 whole entry): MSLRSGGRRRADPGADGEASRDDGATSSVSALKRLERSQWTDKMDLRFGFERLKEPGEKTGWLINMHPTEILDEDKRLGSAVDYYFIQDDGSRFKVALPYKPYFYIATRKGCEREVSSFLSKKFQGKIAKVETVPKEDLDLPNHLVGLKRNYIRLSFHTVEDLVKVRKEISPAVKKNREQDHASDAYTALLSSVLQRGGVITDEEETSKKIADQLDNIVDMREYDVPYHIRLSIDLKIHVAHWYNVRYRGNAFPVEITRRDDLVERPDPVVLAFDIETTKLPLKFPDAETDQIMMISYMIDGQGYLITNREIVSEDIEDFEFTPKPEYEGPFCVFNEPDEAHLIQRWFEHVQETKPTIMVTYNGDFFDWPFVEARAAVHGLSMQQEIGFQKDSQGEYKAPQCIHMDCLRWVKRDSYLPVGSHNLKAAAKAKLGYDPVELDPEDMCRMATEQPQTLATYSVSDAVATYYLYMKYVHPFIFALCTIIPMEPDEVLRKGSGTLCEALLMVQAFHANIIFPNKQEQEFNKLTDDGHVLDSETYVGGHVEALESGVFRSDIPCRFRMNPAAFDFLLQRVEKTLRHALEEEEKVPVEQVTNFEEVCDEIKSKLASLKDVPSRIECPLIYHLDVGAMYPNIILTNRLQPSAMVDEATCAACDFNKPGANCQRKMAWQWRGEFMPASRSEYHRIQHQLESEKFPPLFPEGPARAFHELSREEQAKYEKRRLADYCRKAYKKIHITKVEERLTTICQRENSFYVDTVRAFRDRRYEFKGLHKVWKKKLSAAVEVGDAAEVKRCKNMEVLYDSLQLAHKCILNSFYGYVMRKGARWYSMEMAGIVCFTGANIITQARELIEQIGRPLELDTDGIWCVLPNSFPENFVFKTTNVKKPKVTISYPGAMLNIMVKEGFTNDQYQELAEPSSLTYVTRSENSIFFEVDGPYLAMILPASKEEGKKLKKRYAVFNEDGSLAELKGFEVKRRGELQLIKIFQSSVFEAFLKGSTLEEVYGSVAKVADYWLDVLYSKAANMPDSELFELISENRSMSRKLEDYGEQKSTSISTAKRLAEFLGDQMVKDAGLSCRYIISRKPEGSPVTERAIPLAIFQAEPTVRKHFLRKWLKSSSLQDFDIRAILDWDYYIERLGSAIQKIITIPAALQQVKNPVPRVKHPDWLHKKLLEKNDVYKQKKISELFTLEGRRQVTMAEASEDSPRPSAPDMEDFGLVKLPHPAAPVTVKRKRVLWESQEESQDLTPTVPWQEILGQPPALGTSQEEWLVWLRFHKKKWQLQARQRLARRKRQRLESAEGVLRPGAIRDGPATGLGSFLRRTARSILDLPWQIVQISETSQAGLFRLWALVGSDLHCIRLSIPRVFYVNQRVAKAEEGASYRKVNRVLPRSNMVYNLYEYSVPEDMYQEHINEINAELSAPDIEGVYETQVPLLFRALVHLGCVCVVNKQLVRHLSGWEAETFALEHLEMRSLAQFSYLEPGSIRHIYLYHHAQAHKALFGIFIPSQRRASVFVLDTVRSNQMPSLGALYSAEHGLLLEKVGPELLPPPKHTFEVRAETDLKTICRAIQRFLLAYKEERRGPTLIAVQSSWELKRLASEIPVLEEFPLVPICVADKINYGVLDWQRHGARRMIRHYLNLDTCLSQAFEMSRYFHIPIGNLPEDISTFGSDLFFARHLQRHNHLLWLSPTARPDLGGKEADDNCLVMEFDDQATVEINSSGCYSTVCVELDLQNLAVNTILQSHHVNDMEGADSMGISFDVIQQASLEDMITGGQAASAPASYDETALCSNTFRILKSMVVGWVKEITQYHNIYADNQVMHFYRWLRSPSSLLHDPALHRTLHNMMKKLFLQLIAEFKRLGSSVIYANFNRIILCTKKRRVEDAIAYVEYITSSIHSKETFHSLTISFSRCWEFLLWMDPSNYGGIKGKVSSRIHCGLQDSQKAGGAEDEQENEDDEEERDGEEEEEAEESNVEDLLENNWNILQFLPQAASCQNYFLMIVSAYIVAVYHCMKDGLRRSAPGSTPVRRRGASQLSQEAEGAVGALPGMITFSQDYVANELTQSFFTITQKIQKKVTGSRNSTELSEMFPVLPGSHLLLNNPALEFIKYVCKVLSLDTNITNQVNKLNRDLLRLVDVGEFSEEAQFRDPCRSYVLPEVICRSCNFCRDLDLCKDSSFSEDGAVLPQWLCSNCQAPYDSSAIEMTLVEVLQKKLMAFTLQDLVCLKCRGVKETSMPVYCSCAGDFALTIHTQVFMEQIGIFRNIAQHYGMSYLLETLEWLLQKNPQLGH
T2 sequence (P00573 whole entry): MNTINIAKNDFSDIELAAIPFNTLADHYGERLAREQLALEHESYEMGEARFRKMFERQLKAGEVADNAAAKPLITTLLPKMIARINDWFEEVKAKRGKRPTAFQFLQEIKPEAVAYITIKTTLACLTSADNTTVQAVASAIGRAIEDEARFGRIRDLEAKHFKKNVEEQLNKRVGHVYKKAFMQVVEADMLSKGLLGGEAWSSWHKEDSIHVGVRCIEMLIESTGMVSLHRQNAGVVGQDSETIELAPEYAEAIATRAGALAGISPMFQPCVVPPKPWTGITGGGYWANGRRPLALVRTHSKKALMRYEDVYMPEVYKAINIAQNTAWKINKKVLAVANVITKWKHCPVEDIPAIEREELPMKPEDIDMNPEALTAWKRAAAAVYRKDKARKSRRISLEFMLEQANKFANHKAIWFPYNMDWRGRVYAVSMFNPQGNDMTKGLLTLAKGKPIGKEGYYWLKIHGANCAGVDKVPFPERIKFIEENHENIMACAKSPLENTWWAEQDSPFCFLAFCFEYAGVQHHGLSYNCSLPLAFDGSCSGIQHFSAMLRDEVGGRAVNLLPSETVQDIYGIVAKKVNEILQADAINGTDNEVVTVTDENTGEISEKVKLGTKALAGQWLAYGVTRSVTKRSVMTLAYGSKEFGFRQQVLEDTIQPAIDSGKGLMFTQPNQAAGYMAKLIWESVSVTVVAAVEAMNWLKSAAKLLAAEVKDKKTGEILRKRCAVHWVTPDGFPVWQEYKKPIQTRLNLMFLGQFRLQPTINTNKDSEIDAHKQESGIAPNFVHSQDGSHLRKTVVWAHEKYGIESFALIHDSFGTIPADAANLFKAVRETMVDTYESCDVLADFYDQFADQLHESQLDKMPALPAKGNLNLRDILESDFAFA
T1 sequence (P28340 whole entry): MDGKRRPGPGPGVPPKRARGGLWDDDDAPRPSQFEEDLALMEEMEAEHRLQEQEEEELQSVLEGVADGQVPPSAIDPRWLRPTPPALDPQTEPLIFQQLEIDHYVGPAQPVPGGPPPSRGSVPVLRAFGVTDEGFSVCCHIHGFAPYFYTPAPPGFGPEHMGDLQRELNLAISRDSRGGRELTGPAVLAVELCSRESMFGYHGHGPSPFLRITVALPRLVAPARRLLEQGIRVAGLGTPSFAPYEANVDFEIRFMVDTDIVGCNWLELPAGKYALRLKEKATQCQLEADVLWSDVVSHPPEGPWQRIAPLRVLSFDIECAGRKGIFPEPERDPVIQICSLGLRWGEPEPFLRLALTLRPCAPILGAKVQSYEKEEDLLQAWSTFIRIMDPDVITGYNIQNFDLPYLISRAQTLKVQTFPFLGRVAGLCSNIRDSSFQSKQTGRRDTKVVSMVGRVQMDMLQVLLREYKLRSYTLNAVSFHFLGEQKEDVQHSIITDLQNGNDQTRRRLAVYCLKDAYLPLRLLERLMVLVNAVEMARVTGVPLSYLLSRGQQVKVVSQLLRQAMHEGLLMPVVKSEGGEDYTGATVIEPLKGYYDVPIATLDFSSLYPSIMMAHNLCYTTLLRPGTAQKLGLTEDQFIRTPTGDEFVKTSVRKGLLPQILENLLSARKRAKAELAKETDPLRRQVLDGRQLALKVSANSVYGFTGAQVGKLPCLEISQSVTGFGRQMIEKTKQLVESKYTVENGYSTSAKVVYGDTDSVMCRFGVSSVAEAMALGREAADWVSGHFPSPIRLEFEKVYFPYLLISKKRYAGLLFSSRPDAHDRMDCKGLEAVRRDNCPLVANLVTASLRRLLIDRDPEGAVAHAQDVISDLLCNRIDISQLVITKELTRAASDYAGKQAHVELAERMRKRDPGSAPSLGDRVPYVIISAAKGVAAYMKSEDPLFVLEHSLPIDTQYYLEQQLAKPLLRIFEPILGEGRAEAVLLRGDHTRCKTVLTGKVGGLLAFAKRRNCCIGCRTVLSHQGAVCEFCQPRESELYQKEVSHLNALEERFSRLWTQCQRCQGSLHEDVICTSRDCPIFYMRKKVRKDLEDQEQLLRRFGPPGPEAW

For `C/C=C/c1occ(C(=O)c2c(OC)cc(OC)cc2C(=O)OC)c(=O)c1OC` [compound 1, 3-O-methylfunicone], the “effect on pol δ activity” value at human pol δ is reported as “hardly influenced”. Further, the “effect on T7 RNA polymerase activity” value on T7 RNA polymerase is “did not influence”. Also, the “effect on pol γ activity” value at human pol γ was “hardly influenced”. Besides, on human pol ɛ, the “effect on pol ɛ activity” value is reported as “hardly influenced”. Besides, the “LD50, cell growth” value in test [1] (HCT116, 24 h, MTT assay) stood at 63.8 µM. Moreover, the “cell growth inhibition dose relative to the enzyme inhibitory concentration” value in test [1] (LD50 (HCT116 and HeLa) versus IC50 for Y-family pols) lay in the range of 1.3 to 5.1 fold.

The values above are taken from paper PMC2810227, “3-O-Methylfunicone, a Selective Inhibitor of Mammalian Y-Family DNA Polymerases from an Australian Sea Salt Fungal Strain” (Marine Drugs, 2009).
